Legend:
mice [1] = test: Locomotor activity in mice (activity cages, photobeam breaks); format: in vivo, male Albino Swiss (CD-1) mice; conditions: vs vehicle group
Method: (§1) Blood pressure measurement and ECG were performed on male Wistar rats weighing 200–220 g (six months old). Locomotor activity and chimney tests were performed on adult male Albino Swiss (CD-1) mice weighing 18–22 g ([…]). The animals were obtained from an accredited animal house at the Faculty of Pharmacy, Jagiellonian University Medical College, Krakow, Poland. The experimental groups consisted of 6–8 animals. The animals were housed in constant temperature (22–24 °C) and humidity (40–60%) facilities, exposed to 12:12 h light/dark cycles, and were maintained on a standard pellet diet with tap water available ad libitum. Rats and mice were housed in pairs or 8 animals per home cage, respectively.
Locomotor activity was individually recorded for each animal using specifically designed activity cages made of clear Perspex (40 cm × 40 cm × 31 cm, Activity Cage 7441, Ugo Basile, Italy). The cages were supplied with I.R. horizontal beam emitters connected to a counter that records the light-beam interruptions. The compounds suspensions were administered as i.p. injections 30 min before testing. Control animals received injections of vehicles. Each mouse was placed in a cage for a 30 min habituation period. After that time, the number of breaks in the photobeams was measured for 5 min, which is the same time as the observation period used in other tests.

normotensive rats = test: Blood pressure in anesthetized normotensive rats (carotid artery cannulation); format: in vivo, male Wistar rats; conditions: single i.p. 10 mg/kg b.w., 30–60 min after administration
Method: as §1
Rats were anesthetized with thiopental (70 mg/kg) via i.p. injection. The left carotid artery was cannulated with polyethylene tubing filled with a heparin solution in saline to facilitate pressure measurements using a PowerLab Apparatus (ADInstruments, Sydney, Australia). After a 20 min stabilization period, the test compounds were administered i.p. at a dose of 10 mg/kg b.w. in a constant volume of 1 mL/kg b.w. Blood pressure was recorded immediately before administration and 5, 10, 15, 20, 30, 40, 50, and 60 min after the administration of the test compound [47].

σ1R = biological target: σ1R; design: method as in PMID 34908391; conditions: cited from earlier work; for σ1/σ2: ratio of Ki values
[2] = biological target: T1, human ERG potassium channel (Kv11.1) (Homo sapiens, UniProt Q12809); test: Whole-cell automated patch clamp (QPatch16X), inhibition of hERG currents; format: cell-based; conditions: for IC50: CHO cells stably expressing human ERG, whole-cell, mean of three experiments, read-out: Mean IC50 ± SEM, inhibition of hERG currents; for Inhibition of hERG compared with verapamil: relative to reference compound verapamil
T1 construct: expressed in transfected cells
T1 sequence (Q12809 whole entry): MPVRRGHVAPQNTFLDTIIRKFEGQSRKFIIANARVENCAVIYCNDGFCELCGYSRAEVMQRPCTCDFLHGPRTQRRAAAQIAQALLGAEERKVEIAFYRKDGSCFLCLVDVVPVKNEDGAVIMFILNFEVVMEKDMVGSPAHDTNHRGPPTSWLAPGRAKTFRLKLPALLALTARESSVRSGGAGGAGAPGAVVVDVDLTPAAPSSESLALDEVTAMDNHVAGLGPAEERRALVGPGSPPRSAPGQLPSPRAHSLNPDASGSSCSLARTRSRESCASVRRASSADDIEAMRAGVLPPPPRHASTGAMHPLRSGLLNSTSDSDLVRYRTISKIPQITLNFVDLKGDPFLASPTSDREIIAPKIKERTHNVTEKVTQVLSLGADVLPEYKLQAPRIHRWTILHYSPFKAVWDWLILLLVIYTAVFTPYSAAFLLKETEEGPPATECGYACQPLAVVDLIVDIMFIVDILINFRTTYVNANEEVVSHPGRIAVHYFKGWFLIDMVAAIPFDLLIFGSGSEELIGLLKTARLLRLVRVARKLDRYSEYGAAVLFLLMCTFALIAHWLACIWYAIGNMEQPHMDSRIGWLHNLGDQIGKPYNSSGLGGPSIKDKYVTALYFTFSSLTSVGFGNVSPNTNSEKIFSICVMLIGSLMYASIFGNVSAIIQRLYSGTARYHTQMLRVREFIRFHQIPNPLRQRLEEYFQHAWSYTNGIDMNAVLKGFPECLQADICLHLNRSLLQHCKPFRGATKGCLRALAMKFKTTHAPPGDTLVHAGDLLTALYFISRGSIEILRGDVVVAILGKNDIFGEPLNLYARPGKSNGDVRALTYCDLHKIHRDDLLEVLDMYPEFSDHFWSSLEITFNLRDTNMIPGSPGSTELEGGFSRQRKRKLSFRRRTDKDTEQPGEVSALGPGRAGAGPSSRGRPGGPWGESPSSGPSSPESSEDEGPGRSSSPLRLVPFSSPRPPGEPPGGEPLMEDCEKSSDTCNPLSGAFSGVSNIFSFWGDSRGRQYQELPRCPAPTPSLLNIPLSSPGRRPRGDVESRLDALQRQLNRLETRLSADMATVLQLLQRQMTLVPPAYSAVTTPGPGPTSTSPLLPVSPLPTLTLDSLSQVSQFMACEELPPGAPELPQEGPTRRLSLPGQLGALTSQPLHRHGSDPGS
Method: Electrophysiology experiments were performed on a QPatch16X automatic patch clamp platform (Sophion Bioscience, Ballerup, Denmark). Chinese hamster ovary (CHO) cells stably expressing the human ERG potassium channel (Kv11.1) were cultured using standard procedures. On the day of the experiment, cells were collected from the culture flask using TrypLE Express solution (Life Technologies, Thermo Fisher Scientific, Carlsbad, California, United States) and resuspended in EX-CELL ACF CHO serum-free medium (Merck KGaA, Sigma-Aldrich, Darmstadt, Germany), supplemented with 25 mM HEPES, 100 U/mL penicillin/streptomycin, and 0.04 mg/mL soybean trypsin inhibitor (all components from Sigma Aldrich).
The cells were placed in the lidless microtube and located onboard the automated electrophysiology instrument, where they were automatically relocated to a built-in centrifuge.
Cells were transferred to pipetting wells of single-use 16-channel planar patch chip plates (QPlate 16X, Sophion Bioscience, Ballerup, Denmark) and gigaseals were formed upon application of a combined suction/voltage protocol in a standard protocol supplied by Sophion Bioscience for CHO cells. Once the whole-cell mode was obtained, the cells were kept in a holding potential of -90 mV between the programmed stimulation protocols.
Whole-cell potassium currents were measured in response to repeatedly executed voltage protocols constituted of the following steps: brief clamping to −50 mV (200 ms), subsequent depolarization to 20 mV for 4000 ms, and final repolarization to −50 mV when the outward tail current was measured for 4000 ms.
The average current peak values determined in the presence of particular concentrations of the compound tested were subjected to a sigmoidal dose–response curve fitting, where the bottom plateau parameter was constrained to 0. The IC50 values were then calculated from the obtained sigmoidal dose–response curves. Data were analyzed using QPatch Assay Software (v5.0, Sophion Bioscience, Ballerup, Denmark) and represent the mean of three experiments carried out on distinct cells.

rats = test: Heart rate and ECG intervals in rats; format: in vivo, male Wistar rats; conditions: 10 mg/kg i.p.
Method: as §1
In vivo electrocardiographic measurements were performed using an ASPEL ASCARD B5 apparatus, standard lead II, and a paper speed of 50 mm/s. The study was carried out after a single administration of the test compounds (10 mg/kg i.p.). […] The following parameters were then calculated and analyzed: duration of PQ, QT, QRS, RR intervals, and heart rate.

σ2R = biological target: σ2R; design: method as in PMID 34908391; conditions: cited from earlier work
[3] = system: rats fed a palatable diet; test: Plasma AlaT, AspaT, gGT and ALP activity after repeated administration in rats fed a palatable diet; format: in vivo; conditions: 10 mg/kg b.w. i.p. repeated; for Plasma AlaT activity: vs vehicle control fed palatable feed; for Plasma ALP activity: vs vehicle group with palatable feed
Method: Standard diet ( 8% fats, 67% carbohydrates, and 25% proteins) contained 100 g feed—280 kcal. Rats fed a palatable diet had access to a diet consisting of milk chocolate with nuts, cheese, salted peanuts, and 7% condensed milk and simultaneously to standard feed (Labofeed B, Morawski Manufacturer Feed, Kcynia, Poland) for 4 weeks. The feeding was not in any way forced, and rats decided themselves when, what, and how much to eat. A palatable diet contained 100 g of peanuts—612 kcal; 100 mL of condensed milk—131 kcal; 100 g of milk chocolate—529 kcal; and 100 g of cheese—325 kcal.
The study evaluating the activities of alanine aminotransferase (AlaT), aspartate aminotransferase (AspaT), gamma-glutamyl transpeptidases (gGT), and alkaline phosphatase (ALP) was carried out after completing the excessive eating model experiments described in our previous work. Compounds were administered for twenty-eight days at a dose of 10 mg/kg b.w./day. On the 31st day of the experiment, 20 min after i.p. administration of heparin (5000 units/rat) and thiopental (70 mg/kg b.w.), blood was collected from the left carotid artery and then centrifuged at 600× g (15 min, 4 °C) in order to obtain the plasma. To determine the activities of AlaT, AapaT, gGT, and ALP in the plasma samples, a standard enzymatic spectrophotometric test (Biomaxima S.A., Lublin, Poland) was used.

mice [4] = test: Motor coordination in the chimney test; format: in vivo, male Albino Swiss (CD-1) mice; conditions: chimney test, 30 min after injection, n = 8
Method: as §1
The effect of tested compounds on motor impairment were quantified with the chimney test of Boissier et al. (1960). The mice were trained before the test, and only the animals able to get out of the chimney within 1 min were used at the experimental stage. The selected mice were placed in a 25 cm-long and 2.5 cm in diameter […] tube, which was reversed so that the mice could leave it only by climbing up backward until they reached the other end. The test was performed 30 min after injection (i.p.) of the examined compounds. Motor impairment was indicated by the inability of the animals to climb up backwards in the transparent tube within 60 s.

H3R = biological target: H3R; design: method as in PMID 34908391; conditions: cited from earlier work; for H3/σ1 / H3/σ2: ratio of Ki values
sigma-2 receptors = biological target: sigma-2 receptors; design: method as in earlier work; conditions: cited from earlier work

| SMILES | Locomotor activity (mice [1]; single i.p. 30 mg/kg b.w.) | Decrease of diastolic blood pressure (normotensive rats) | Decrease of systolic blood pressure (normotensive rats) | Ki (σ1R) [nM] | σ1/σ2 (σ1R) | IC50 [2] [nM] | Inhibition of hERG compared with verapamil [2] | Heart rate (rats; time 0 min) [beats/min] | PQ (rats; time 0 min) [ms] | QRS (rats; time 0 min) [ms] | QT (rats; time 0 min) [ms] | Heart rate (rats; time 15 min) [beats/min] | PQ (rats; time 15 min) [ms] | QRS (rats; time 15 min) [ms] | QT (rats; time 15 min) [ms] | Heart rate (rats; time 30 min) [beats/min] | PQ (rats; time 30 min) [ms] | QRS (rats; time 30 min) [ms] | QT (rats; time 30 min) [ms] | Heart rate (rats; time 45 min) [beats/min] | further results |
| --- | --- | --- | --- | --- | --- | --- | --- | --- | --- | --- | --- | --- | --- | --- | --- | --- | --- | --- | --- | --- | --- |
| CC(=O)c1ccc(OCCCCCCCCN2CCN(c3ccncc3)CC2)cc1 [KSK-73] | significant decrease | 10–14 mmHg | approx. 12 mmHg | 408 | 6.84 | 2070 ± 402 | four times weaker | 370.0 ± 23.9 | 56.3 ± 2.2 | 22.7 ± 5.4 | 61.3 ± 2.2 | 375.5 ± 23.9 | 51.3 ± 2.2 | 22.7 ± 5.4 | 63.8 ± 4.1 | 377.1 ± 27.3 | 51.3 ± 2.2 | 22.7 ± 5.4 | 60.0 ± 7.1 | 395.8 ± 33.3 | PQ (rats; time 45 min): 52.5 ± 2.5 ms; QRS (rats; time 45 min): 20.0 ± 0.0 ms; QT (rats; time 45 min): 58.8 ± 2.2 ms; Heart rate (rats; time 60 min): 377.0 ± 26.4 beats/min; PQ (rats; time 60 min): 53.8 ± 2.2 ms; QRS (rats; time 60 min): 20.0 ± 0.0 ms; QT (rats; time 60 min): 63.8 ± 6.5 ms; Ki (σ2R): 59.7 nM; Plasma gGT activity ([3]; vs palatable feed-fed control group): statistically lower gGT activity; Plasma AlaT activity [3]: lower; Plasma ALP activity [3]: lower plasma ALP activity; % of Mice Impaired (mice [4]; 10 mg/kg i.p.): 12.5%; % of Mice Impaired (mice [4]; 20 mg/kg i.p.): 0%; % of Mice Impaired (mice [4]; 30 mg/kg i.p.): 0%; Ki (H3R): 40.5 nM; H3/σ1 (H3R): 0.1; H3/σ2 (H3R): 0.68 |
| CCC(=O)c1ccc(OCCCCCCCCN2CCN(c3ccncc3)CC2)cc1 [KSK-74] | No significant changes | 10–13 mmHg | approx. 12 mmHg | 274 | 4.16 | 3400 ± 289 | almost seven times weaker | 381.8 ± 19.9 | 56.3 ± 4.1 | 20.0 ± 0.0 | 62.5 ± 4.3 | 356.3 ± 18.9 | 53.8 ± 4.1 | 20.0 ± 0.0 | 60.0 ± 5.0 | 355.3 ± 32.2 | 56.3 ± 2.2 | 20.0 ± 0.0 | 61.3 ± 6.5 | 364.6 ± 18.1 | Locomotor activity (mice [1]; single i.p. 10 mg/kg b.w., 30 min before test): significantly increased; PQ (rats; time 45 min): 57.5 ± 2.5 ms; QRS (rats; time 45 min): 20.0 ± 0.0 ms; QT (rats; time 45 min): 65.0 ± 6.1 ms; Heart rate (rats; time 60 min): 370.8 ± 23.9 beats/min; PQ (rats; time 60 min): 55.0 ± 5.0 ms; QRS (rats; time 60 min): 20.0 ± 0.0 ms; QT (rats; time 60 min): 62.5 ± 8.3 ms; Ki (σ2R): 65.9 nM; Plasma AlaT activity [3]: lower; Plasma ALP activity [3]: lower plasma ALP activity; % of Mice Impaired (mice [4]; 10 mg/kg i.p.): 0%; % of Mice Impaired (mice [4]; 20 mg/kg i.p.): 12.5%; % of Mice Impaired (mice [4]; 30 mg/kg i.p.): 12.5%; Ki (H3R): 38.9 nM; H3/σ1 (H3R): 0.14; H3/σ2 (H3R): 0.59 |
| Clc1ccc(CCCOCCCN2CCCCC2)cc1 [Pitolisant] | – | – | – | – | – | – | – | – | – | – | – | – | – | – | – | – | – | – | – | – | Ki (sigma-2 receptors): 6.5 nM |
